Read-outs that look alike come from different tables or passages of the source. Residues, ends and D or L forms follow the SMILES beside them.

These results are taken from patent US11160887B2, “Compositions for use in diagnosing and treating melanoma, including metastatic melanoma and methods related to same” (UNM RAINFOREST INNOVATIONS, priority 2008, dated 2021).

In data set [1] the test system is B16/F1 murine melanoma-bearing C57 mice. Description: Biodistribution in B16/F1 murine melanoma-bearing C57 mice. It counts as in vivo, mouse. The method, then:
(§1) Biodistribution Studies: All the animal studies were conducted in compliance with Institutional Animal Care and Use Committee approval. The pharmacokinetics of ^111In-DOTA-CycMSH and ^111In-DOTA-GlyGlu-CycMSH were determined in B16/F1 murine melanoma-bearing C57 female mice (Harlan, Indianapolis, Ind.). C57 mice were inoculated subcutaneously with 1×10^6 B16/F1 murine melanoma cells in the right flank. After 10 days, when the weight of tumors reached approximately 0.2 g, 0.037 MBq of ^111In-DOTA-CycMSH or ^111In-DOTA-GlyGlu-CycMSH was injected into each mouse through the tail vein. Groups of 5 mice were sacrificed at 2, 4 and 24 h post-injection, and tumors and organs of interest were harvested, weighed and counted. Blood values were taken as 6.5% of the whole-body weight. The tumor uptake specificity of ^111In-DOTA-CycMSH and ^111In-DOTA-GlyGlu-CycMSH was determined by blocking tumor uptake with the co-injection of 10 μg (6.07 nmol) of unlabeled NDP-MSH, a linear α-MSH peptide analogue with picomolar affinity for the MC1 receptors present on murine melanoma cells. Statistical analysis was performed using the Student's t-test for unpaired data.

Assay in data set [2]: as above
The data set is classed as in vivo, mouse. The note with it: female, C57, mouse, iv, 0.037 MBq, total radioactivity; for tissue uptake: all time points (2, 4, 24 h). The method, then: as §1

Data set [3] in a line: Urinary metabolites by HPLC in B16/F1 melanoma-bearing C57 mice. The data set is classed as in vivo, mouse. The note with it: urine, 2 h post-injection. The method, then:
Urinary Metabolites of ^111In-DOTA-CycMSH and ^111In-DOTA-GlyGlu-CycMSH: One hundred microliter of HPLC purified ^111In-DOTA-CycMSH (0.74-1.11 MBq, 0.82-1.12 ng) or ^111In-DOTA-GlyGlu-CycMSH (0.74-1.11 MBq, 0.90-1.35 ng) was injected into each B16/F1 murine melanoma-bearing C57 mouse through the tail vein. At 2 h after dose administration, mice were sacrificed and the urine was collected. The radioactive metabolites in the urine were analyzed by injecting aliquots of urine into HPLC. A 20-minute gradient of 16-26% acetonitrile/20 mM HCl was used for the urine analysis.

A short description of data set [4]: Stability in mouse serum monitored by RP-HPLC. It counts as in vitro ADME. Particulars: 37° C., 24 h incubation. The method, then: Complexation of the Peptide with ^111In: ^111In-DOTA-CycMSH and ^111In-DOTA-GlyGlu-CycMSH were prepared using a 0.5 M NH4OAc-buffered solution at pH 5.4. Briefly, 50 μl of ^111InCl3 (18.5-37.0 MBq in 0.05 M HCl), 10 μl of 1 mg/ml DOTA-CycMSH or DOTA-GlyGlu-CycMSH aqueous solution and 400 μl of 0.5 M NH4OAc (pH 5.4) were added into a reaction vial and incubated at 75° C. for 45 min. After the incubation, 20 μl of 0.5% EDTA aqueous solution was added into the reaction vial to scavenge potential unbound ^111In. The radiolabeled complexes were purified to single species by Waters RP-HPLC (Milford, Mass.) on a Grace Vadyc C-18 reverse phase analytical column (Deerfield, Ill.) using a 20-minute gradient of 16-26% acetonitrile in 20 mM HCl aqueous solution with a flowrate of 1 ml/min. Purified peptide samples were purged with N2 gas for 20 minutes to remove the acetonitrile. The pH of final solution was adjusted to 7.4 with 0.1 N NaOH and normal saline for animal studies. The stability of ^111In-DOTA-CycMSH and ^111In-DOTA-GlyGlu-CycMSH was determined by incubation in mouse serum at 37° C. according to the published procedure (20) for various time periods, and monitored for degradation by RP-HPLC.

Data set [5] addresses T1, MC1 receptor (B16/F1 murine melanoma cells) (Mus musculus, UniProt Q01727).
T1 construct: host or cells: B16/F1 murine melanoma cells
Description: In vitro competitive binding assay in B16/F1 cells (125I-Tyr2-NDP-MSH displacement). Particulars: 25° C., 2 h. The method, then:
In vitro Competitive Binding Assay: The IC50 values of DOTA-CycMSH and DOTA-GlyGlu-CycMSH were determined by using methods described previously (8). B16/F1 cells were harvested and seeded into a 24-well cell culture plate (5×10^5/well) and incubated at 37° C. overnight. After being washed once with binding media (MEM with 25 mM HEPES, pH 7.4, 0.2% BSA, 0.3 mM 1,10-phenathroline), the cells were incubated at room temperature (25° C.) for 2 h with approximately 50,000 cpm of ^125I-Tyr^2-[Nle^4, D-Phe^7]-α-MSH {NDP-MSH} (GE HealthCare, Piscataway, N.J.) in presence of increasing concentrations of DOTA-CycMSH or DOTA-GlyGlu-CycMSH in 0.3 ml of binding media. The reaction media were aspirated after incubation. Cells were rinsed with 0.5 ml of ice-cold pH 7.4, 0.2% BSA/0.01 M PBS twice and lysed in 0.5 ml of 1 N NaOH for 5 minutes. The activities in cells were measured in a gamma counter. The IC50 values for the peptides were calculated by using the Grafit software (Erithacus Software Limited, UK).
In vitro Competitive Binding Assay: The IC50 values of DOTA-GluGlu-CycMSH and Ac-GluGlu-CycMSH[DOTA] were determined by using methods described previously (12). B16/F1 cells were harvested and seeded into a 24-well cell culture plate (5×10^5/well) and incubated at 37° C. overnight. After being washed once with binding media (MEM with 25 mM HEPES, pH 7.4, 0.2% BSA, 0.3 mM 1,10-phenathroline), the cells were incubated at 25° C. for 2 h with approximately 50,000 cpm of ^125I-(Tyr^2)-NDP-MSH in the presence of increasing concentrations (10^−13 to 10^−6 M) of DOTA-GluGlu-CycMSH or Ac-GluGlu-CycMSH[DOTA] in 0.3 ml of binding media. The reaction media were aspirated after incubation. Cells were rinsed with 0.5 ml of ice-cold pH 7.4; 0.2% BSA/0.01 M PBS twice and lysed in 0.5 ml of 1 N NaOH for 5 min. The activities associated with cells were measured in a Wallac 1480 automated gamma counter (PerkinElmer, N.J.). The IC50 values of the peptides were calculated by using Prism software (GraphPad Software, La Jolla, Calif.).

The target in data set [6] is T2, MC1 receptor (B16/F10 murine melanoma cells) (Mus musculus, UniProt Q01727).
T2 construct: host or cells: B16/F10 murine melanoma cells
T2 sequence (Q01727 whole entry): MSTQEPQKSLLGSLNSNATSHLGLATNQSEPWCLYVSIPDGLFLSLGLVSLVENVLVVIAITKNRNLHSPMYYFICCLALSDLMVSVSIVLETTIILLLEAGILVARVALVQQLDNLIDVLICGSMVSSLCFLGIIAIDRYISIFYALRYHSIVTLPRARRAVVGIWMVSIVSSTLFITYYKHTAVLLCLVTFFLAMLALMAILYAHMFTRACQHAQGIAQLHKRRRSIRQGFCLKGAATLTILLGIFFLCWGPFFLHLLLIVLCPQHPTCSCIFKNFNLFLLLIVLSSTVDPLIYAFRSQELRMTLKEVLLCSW
Nature of the data set: In vitro competitive binding assay in B16/F10 cells (125I-(Tyr2)-NDP-MSH displacement). Particulars: 25° C., 2 h, read-out: IC50 (MC1 receptor binding affinity). The method, then: In vitro Competitive Binding Assay: The IC50 value of DOTA-GlyGlu-CycMSH was determined in B16/F10 cells. The cells were harvested and seeded into a 24-well cell culture plate (5×10^5/well) and incubated at 37° C. overnight. After being washed once with binding media, the cells were incubated at 25° C. for 2 h with approximately 50,000 cpm of ^125I-(Tyr^2)-NDP-MSH in the presence of increasing concentrations of DOTA-GlyGlu-CycMSH (10^−12 to 10^−5 M) in 0.3 mL of binding media. The reaction media were aspirated after incubation. Cells were rinsed with 0.5 mL of ice-cold pH 7.4, 0.2% BSA/0.01 M PBS twice, and then lysed in 0.5 mL of 1 N NaOH for 5 min. The activities associated with the cells were measured in a gamma counter. The IC50 value was calculated by using Prism software.

Data set [7] concerns endocytosis in tubular cells. Particulars: rat model, literature (27); cited from earlier work.

T1 sequence (Q01727 whole entry): as above

Turning to `CCCC[C@@H]1NC(=O)[C@@H](NC(=O)CN2CCN(CC(=O)O)CCN(CC(=O)O)CCN(CC(=O)O)CC2)CCCCNC(=O)[C@H](CC(=O)O)NC(=O)[C@H](C(C)C)NC(=O)[C@@H]2CCCN2C(=O)[C@H](CCCNC(=N)N)NC(=O)CNC(=O)[C@H](Cc2c[nH]c3ccccc23)NC(=O)[C@H](CCCNC(=N)N)NC(=O)[C@@H](Cc2ccccc2)NC(=O)[C@H](Cc2c[nH]cn2)NC(=O)[C@H](CCC(=O)O)NC1=O` [^111In-DOTA-CycMSH, metal not drawn] (HELM PEPTIDE1{[O=C(O)CN1CCN(CC(=O)O)CCN(CC(=O)[*:2])CCN(CC(=O)O)CC1].K.[Nle].E.H.[dF].R.W.G.R.P.V.D}$PEPTIDE1,PEPTIDE1,2:R3-13:R2$$$V2.0), the “tumor uptake with NDP co-injection as % of the tumor uptake without NDP co-injection” value in data set [1] (10 μg (6.07 nmol) non-radiolabeled NDP co-injection, 2 h after dose administration) is given as 3.0%. The tumor uptake in data set [1] (2 h post-injection, tail vein) worked out at 9.53±1.41 % ID/g. Moreover, the tissue uptake was below 0.2 %ID/g in data set [2] (bone, read-out: bone uptake) and below 0.8 %ID/g in data set [2] (normal organs except the kidneys, read-out: normal organ uptakes except for the kidneys). Moreover, the kidney uptake at 24 h in data set [2] (kidney, 24 h after dose administration) came out at 16 ± 2.3 %ID/g. Also, the tissue uptake at 2 h in data set [2] (tumor, 2 h post-injection, tail vein) is 9.53 ± 1.41 %ID/g. Besides, in data set [2] (tumor, 4 h post-injection, tail vein), the tissue uptake at 4 h came to 7.54 ± 0.7 %ID/g. In addition, the tissue uptake at 24 h in data set [2] (tumor, 24 h post-injection, tail vein) was 2.22 ± 0.51 %ID/g. In addition, the dose excreted in data set [2] (urine, by 2 h post-injection, read-out: injected radioactivity cleared through the urinary system) was around 90%. Moreover, the “urinary metabolites by RP-HPLC” value in data set [3] is listed as “transformed to two more polar metabolites”. For the same compound, in data set [4], the “stability in mouse serum” value is given as “stable”.

On to `CCCC[C@@H]1NC(=O)[C@@H](NC(=O)CN2CCN(CC(=O)O)CCN(CC(=O)O)CCN(CC(=O)O)CC2)CCCCNC(=O)[C@H](CC(=O)O)NC(=O)[C@H](C(C)C)NC(=O)[C@@H]2CCCN2C(=O)[C@H](CCCNC(=N)N)NC(=O)CNC(=O)[C@H](Cc2c[nH]c3ccccc23)NC(=O)[C@H](CCCNC(=N)N)NC(=O)[C@@H](Cc2ccccc2)NC(=O)[C@H](Cc2c[nH]cn2)NC(=O)[C@H](CCC(=O)O)NC1=O` [DOTA-CycMSH] (HELM PEPTIDE1{[O=C(O)CN1CCN(CC(=O)O)CCN(CC(=O)[*:2])CCN(CC(=O)O)CC1].K.[Nle].E.H.[dF].R.W.G.R.P.V.D}$PEPTIDE1,PEPTIDE1,2:R3-13:R2$$$V2.0), for which the IC50 – broadly, the point on the concentration scale where inhibition reaches its midpoint – in data set [5] was 1.75 nM.

In the case of `CCCC[C@@H]1NC(=O)[C@@H](NC(=O)[C@H](CCC(=O)O)NC(=O)CNC(=O)CN2CCN(CC(=O)O)CCN(CC(=O)O)CCN(CC(=O)O)CC2)CCCCNC(=O)[C@H](CC(=O)O)NC(=O)[C@H](C(C)C)NC(=O)[C@@H]2CCCN2C(=O)[C@H](CCCNC(=N)N)NC(=O)CNC(=O)[C@H](Cc2c[nH]c3ccccc23)NC(=O)[C@H](CCCNC(=N)N)NC(=O)[C@@H](Cc2ccccc2)NC(=O)[C@H](Cc2c[nH]cn2)NC(=O)[C@H](CCC(=O)O)NC1=O` [DOTA-GlyGlu-CycMSH, DOTA-Gly-Glu-c[Lys-Nle-Glu-His-DPhe-Arg-Trp-Gly-Arg-Pro-Val-Asp]] (HELM PEPTIDE1{[O=C(O)CN1CCN(CC(=O)O)CCN(CC(=O)[*:2])CCN(CC(=O)O)CC1].G.E.K.[Nle].E.H.[dF].R.W.G.R.P.V.D}$PEPTIDE1,PEPTIDE1,4:R3-15:R2$$$V2.0), the IC50 in data set [5] is 0.9 nM; in data set [6] it was 2.43 nM.

Take `COc1cc2c(c(OC)c1OC)-c1ccc(OC)c(=O)cc1[C@@H](NC(C)=O)CC2` [colchicine]: the “decrease of the renal uptake of radiolabeled peptide” value in data set [7] is on record as “up to 25%”.

Turning to `CCCC[C@@H]1NC(=O)[C@@H](NC(=O)[C@H](CCC(=O)O)NC(=O)[C@H](CCC(=O)O)NC(=O)CN2CCN(CC(=O)O)CCN(CC(=O)O)CCN(CC(=O)O)CC2)CCCCNC(=O)[C@H](CC(=O)O)NC(=O)[C@H](C(C)C)NC(=O)[C@@H]2CCCN2C(=O)[C@H](CCCNC(=N)N)NC(=O)CNC(=O)[C@H](Cc2c[nH]c3ccccc23)NC(=O)[C@H](CCCNC(=N)N)NC(=O)[C@@H](Cc2ccccc2)NC(=O)[C@H](Cc2c[nH]cn2)NC(=O)[C@H](CCC(=O)O)NC1=O` [DOTA-GluGlu-CycMSH, 1,4,7,10-tetraazacyclododecane-1,4,7,10-tetraacetic acid-Glu-Glu-c[Lys-Nle-Glu-His-DPhe-Arg-Trp-Gly-Arg-Pro-Val-Asp]] (HELM PEPTIDE1{[O=C(O)CN1CCN(CC(=O)O)CCN(CC(=O)[*:2])CCN(CC(=O)O)CC1].E.E.K.[Nle].E.H.[dF].R.W.G.R.P.V.D}$PEPTIDE1,PEPTIDE1,4:R3-15:R2$$$V2.0), in data set [5], the IC50 was found to be 6.73 nM.
